Read-outs that look alike come from different tables or passages of the source.
Target: Glucocerebrosidase (Homo sapiens (Human), UniProt P04062)
Test: Glucocerebrosidase activity assay with blue substrate (4MU-Glc)
Assay type: biochemical
Experimental: The compounds in DMSO solution 0.5 μL/well were transferred to a black 96-well plate. The final titration was 24 nM to 50 μM, 12 concentrations, 2 times dilution. […] After 5 min of incubation at room temperature, the enzyme reaction was initiated by the addition of 33 μL/well blue substrate. Final concentrations of the blue substrate (4MU-Glc) was 1.5 mM. The blue substrate reaction was terminated by the addition of 33 μL/well stop solution (1 M NaOH and 1 M glycine mixture, pH 10) after 30 min of incubation at 37° C. The fluorescence was then measured in the Biotek Synergy H1 multi-mode plate reader with Ex=365 nm and Em=440 nm.
Additional compounds were prepared and tested according to the procedures provided in the examples above.
Additional substituted quinazoline compounds were prepared and tested according to the procedures provided in the examples above.

[1] = cells marked (act), read-out: IC50 or AC50 (μM): AC50 (act)
[2] = cells marked activator, read-out: Activity AC50 or IC50 (μM unless nM indicated): AC50, activator

Sequence of Glucocerebrosidase (P04062 40-536): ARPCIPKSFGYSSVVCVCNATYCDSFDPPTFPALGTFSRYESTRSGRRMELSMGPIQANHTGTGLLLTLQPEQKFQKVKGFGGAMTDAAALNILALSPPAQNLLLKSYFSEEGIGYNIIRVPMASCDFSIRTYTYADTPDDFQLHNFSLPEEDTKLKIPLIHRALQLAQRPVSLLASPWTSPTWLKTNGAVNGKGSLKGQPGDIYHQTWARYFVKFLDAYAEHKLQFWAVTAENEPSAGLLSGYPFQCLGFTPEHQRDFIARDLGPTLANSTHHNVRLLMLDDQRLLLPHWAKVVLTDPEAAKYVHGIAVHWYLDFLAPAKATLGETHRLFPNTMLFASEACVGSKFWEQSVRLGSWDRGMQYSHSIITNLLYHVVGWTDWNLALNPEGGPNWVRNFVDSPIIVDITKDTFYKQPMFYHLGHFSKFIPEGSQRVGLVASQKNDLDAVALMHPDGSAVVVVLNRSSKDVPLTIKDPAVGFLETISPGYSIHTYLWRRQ

SMILES	AC50 [2]	other results
CN(CCc1cccc(F)c1)c1nc(-c2cccnc2)nc2ccccc12 [compound 59]	–	AC50 [1]: 4.47 µM
c1cncc(-c2nc(N3C4CCC3CC4)c3ccccc3n2)c1 [compound 64]	–	AC50 [1]: 2.24 µM
Nc1ccc(CCNc2nc(-c3cccnc3)nc3ccccc23)cc1 [compound 71]	–	AC50 [1]: 2 µM
c1ccc(C2CCCN(c3nc(-c4cccnc4)nc4ccccc34)C2)cc1 (stereo not shown) [compound 82]	–	IC50 or AC50 (μM): AC50 (act) (cells marked (act)): Weak (act)
c1ccc(CC2CCCCN2c2nc(-c3cccnc3)nc3ccccc23)cc1 (stereo not shown) [compound 83]	–	AC50 [1]: 2.24 µM
c1ccc(CC2CCCN(c3nc(-c4cccnc4)nc4ccccc34)C2)cc1 (stereo not shown) [compound 87]	–	AC50 [1]: 2.51 µM
Cc1ccc(OCCNc2nc(-c3cccnc3)nc3ccccc23)cc1 [compound 90]	0.62 µM	–
CN(c1nc(-c2cccnc2)nc2ccccc12)C1Cc2ccc(C#CCCCCCCCCC(=O)ON3C(=O)CCC3=O)cc2C1 (stereo not shown) [compound 105]	–	Activity AC50 or IC50 (μM unless nM indicated): AC50, activator (cells marked activator): Weak activator
COC(=O)CCCCCCCCC#Cc1ccc(OCCN(C)c2nc(-c3cccnc3)nc3ccccc23)cc1 [compound 109]	–	Activity AC50 or IC50 (μM unless nM indicated): AC50, activator (cells marked activator): Weak activator
CN(CCOc1ccc(C#CCOCCOCCNc2nc(-c3cccnc3)nc3ccccc23)cc1)c1nc(-c2cccnc2)nc2ccccc12 [compound 110]	–	Activity AC50 or IC50 (μM unless nM indicated): AC50, activator (cells marked activator): Weak activator
CN(CCOc1ccc(C#CCCCCCCC#Cc2ccc(OCCN(C)c3nc(-c4cccnc4)nc4ccccc34)cc2)cc1)c1nc(-c2cccnc2)nc2ccccc12 [compound 111]	35 µM	–
CN(CCCCCCCCCCN(C)c1nc(-c2cccnc2)nc2ccccc12)c1nc(-c2cccnc2)nc2ccccc12 [compound 112]	–	Activity AC50 or IC50 (μM unless nM indicated): AC50, activator (cells marked activator): Weak activator
C#CCOCCOCCNc1nc(-c2cccnc2)nc2ccccc12 [compound 113]	12.6 µM	–
c1cncc(-c2nc(N3CCOc4ccccc4C3)c3ccccc3n2)c1 [compound 115]	7.94 µM	–
c1cncc(-c2nc(N3CCCOCC3)c3ccccc3n2)c1 [compound 116]	–	Activity AC50 or IC50 (μM unless nM indicated): AC50, activator (cells marked activator): Weak activator
COC(=O)CCCCCCCCCCc1ccc(OCCN(C)c2nc(-c3cccnc3)nc3ccccc23)cc1 [compound 117]	7.08 µM	–
CN(c1nc(-c2cccnc2)nc2ccccc12)C1CCCC1 [compound 118]	22.4 µM	–

SMILES	AC50 [2]	other results
CN(CCCCc1ccccc1)c1nc(-c2cccnc2)nc2ccccc12 [compound 120]	3.16 µM	–
CN(c1nc(-c2cccnc2)nc2ccccc12)C1CCCCCC1 [compound 121]	8.91 µM	–
CN(CCc1ccccc1)c1nc(-c2cccnc2)nc2ccccc12 [compound 122]	5.01 µM	–
CN(c1nc(-c2cccnc2)nc2ccccc12)C1CCCCCCC1 [compound 123]	–	Activity AC50 or IC50 (μM unless nM indicated): AC50, activator (cells marked activator): Weak activator
CN(CCOc1ccccc1)c1nc(Cl)nc2ccccc12 [compound 124]	10 µM	–
CN(CCOc1ccccc1)c1nc(-c2cncnc2)nc2ccccc12 [compound 127]	1.25 µM	–
CN(CCOc1ccccc1)c1nc(-c2ccccc2F)nc2ccccc12 [compound 128]	1.25 µM	–
CN(CCOc1ccccc1)c1nc(-c2ccncc2)nc2ccccc12 [compound 130]	3.98 µM	–
CN(CCOc1ccccc1)c1nc(-c2ccco2)nc2ccccc12 [compound 133]	31.6 µM	–
CN(CCOc1ccccc1)c1nc(-c2ccoc2)nc2ccccc12 [compound 134]	0.65 µM	–
COc1ccccc1OCCN(C)c1nc(-c2cccnc2)nc2ccccc12 [compound 135]	22.4 µM	–
Cc1ccc(OCCN(C)c2nc(-c3cccnc3)nc3ccccc23)cc1 [compound 136]	3.55 µM	–
CN(CCCOc1ccccc1)c1nc(-c2cccnc2)nc2ccccc12 [compound 137]	5.01 µM	–
CC(CN(C)c1nc(-c2cccnc2)nc2ccccc12)Oc1ccccc1 (stereo not shown) [compound 138]	5.62 µM	–
CC(COc1ccccc1)N(C)c1nc(-c2cccnc2)nc2ccccc12 (stereo not shown) [compound 139]	5.62 µM	–
CN(CCOc1ccccc1)c1nc(-c2ccccn2)nc2ccccc12 [compound 143]	–	Activity AC50 or IC50 (μM unless nM indicated): AC50, activator (cells marked activator): Weak activator
CN(CCOc1ccc(C#CCCCCCCCCC(=O)ON2C(=O)CCC2=O)cc1)c1nc(-c2cccnc2)nc2ccccc12 [compound 153]	–	Activity AC50 or IC50 (μM unless nM indicated): AC50, activator (cells marked activator): activator

— patent publication US10501435B2, “Substituted quinazoline compounds and uses thereof for modulating glucocerebrosidase activity” (Northwestern University, priority 2015, dated 2019)
